# Patent US20170008888A1 (KYORIN PHARMACEUTICAL CO., LTD., priority 2014, published 2017)
# Tests used:
# Type in all cases: binding
# ERK5 = molecular target: T1, ERK5 (Homo sapiens, UniProt Q13164); assay: Probe-based (AX9989 acyl phosphate ATP probe) kinase profiling in Jurkat lysate: ERK5; details: for IC50: calculated from percent inhibition of AX9989 labeling and the screening concentration, Jurkat lysate; for inhibition at 1 µM: screening concentration 1.0 μM; for inhibition at 1 µM / inhibition at 0.1 µM: read-out: Kinase inhibition % at indicated screening concentration: ERK5; for inhibition at 0.1 µM: screening concentration 0.1 μM
# T1 construct: screened for activity against several kinases in Jurkat cells; endogenous in cells; host or cells: Jurkat cell lysate
# T1 sequence (Q13164 whole entry): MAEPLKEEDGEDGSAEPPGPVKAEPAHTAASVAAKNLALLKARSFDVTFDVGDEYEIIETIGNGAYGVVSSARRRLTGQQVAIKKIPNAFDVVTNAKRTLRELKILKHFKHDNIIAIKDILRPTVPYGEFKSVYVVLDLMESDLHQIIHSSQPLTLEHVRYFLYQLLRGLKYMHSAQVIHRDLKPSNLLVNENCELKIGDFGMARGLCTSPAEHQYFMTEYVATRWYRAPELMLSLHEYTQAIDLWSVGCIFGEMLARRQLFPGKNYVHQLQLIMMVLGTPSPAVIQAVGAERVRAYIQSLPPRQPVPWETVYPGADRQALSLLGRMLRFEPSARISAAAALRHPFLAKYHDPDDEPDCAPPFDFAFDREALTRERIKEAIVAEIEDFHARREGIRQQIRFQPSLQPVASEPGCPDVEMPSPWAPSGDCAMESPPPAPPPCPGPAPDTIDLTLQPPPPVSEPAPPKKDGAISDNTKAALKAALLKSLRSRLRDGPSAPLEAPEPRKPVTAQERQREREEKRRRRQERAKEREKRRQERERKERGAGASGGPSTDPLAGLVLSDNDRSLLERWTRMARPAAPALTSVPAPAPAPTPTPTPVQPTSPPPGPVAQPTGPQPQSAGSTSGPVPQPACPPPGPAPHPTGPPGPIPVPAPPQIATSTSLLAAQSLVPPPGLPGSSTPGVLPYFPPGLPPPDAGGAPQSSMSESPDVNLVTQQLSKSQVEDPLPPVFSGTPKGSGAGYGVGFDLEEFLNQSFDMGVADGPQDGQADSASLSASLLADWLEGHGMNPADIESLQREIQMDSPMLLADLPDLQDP
# Outline: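 ERK5 IC50 values came from percent inhibition at the screening concentration, measured as loss of LC/MS signal of probe-labelled active-site peptides. Compound was added for 15 min at room temperature to Jurkat lysate (5 mg/ml, 20 mM MnCl2) before labelling with AX9989 ATP acyl phosphate probe at 5 μM.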
# AurA = molecular target: T2, AurA (Homo sapiens, UniProt O14965); assay: Probe-based (AX9989) kinase profiling in Jurkat lysate: AurA; details: read-out: Kinase inhibition % at indicated screening concentration: AurA; for inhibition at 1 µM: screening concentration 1.0 μM; for inhibition at 0.1 µM: screening concentration 0.1 μM
# T2 construct: screened for activity against several kinases in Jurkat cells; endogenous in cells; host or cells: Jurkat cell lysate
# T2 sequence (O14965 1-403): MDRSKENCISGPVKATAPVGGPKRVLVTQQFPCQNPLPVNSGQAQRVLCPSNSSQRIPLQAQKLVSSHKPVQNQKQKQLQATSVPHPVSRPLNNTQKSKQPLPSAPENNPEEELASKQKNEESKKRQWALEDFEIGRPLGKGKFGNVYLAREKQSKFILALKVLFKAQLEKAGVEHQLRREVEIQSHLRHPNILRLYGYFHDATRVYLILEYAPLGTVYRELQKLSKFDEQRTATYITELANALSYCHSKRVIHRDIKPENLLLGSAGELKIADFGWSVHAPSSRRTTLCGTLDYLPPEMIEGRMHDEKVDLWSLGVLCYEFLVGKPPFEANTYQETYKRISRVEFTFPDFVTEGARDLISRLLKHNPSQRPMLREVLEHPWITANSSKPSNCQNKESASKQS
# Outline: (§1)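 Percent inhibition was derived from reduced LC/MS fragment intensities of probe-labeled peptides relative to compound-free controls. Before labeling with 5 μM AX9989, Mn2+-supplemented (20 mM) Jurkat lysate was exposed to compound for 15 min at room temperature.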
# AurB or AurC = assay: Probe-based (AX9989) kinase profiling in Jurkat lysate: AurB or AurC
# Outline: as §1
# JAK1 = molecular target: T3, JAK1 (Homo sapiens, UniProt P23458); assay: Probe-based (AX9989) kinase profiling in Jurkat lysate: JAK1; details: read-out: Kinase inhibition % at indicated screening concentration: JAK1; for inhibition at 1 µM: screening concentration 1.0 μM; for inhibition at 0.1 µM: screening concentration 0.1 μM
# T3 construct: screened for activity against several kinases in Jurkat cells; endogenous in cells; host or cells: Jurkat cell lysate
# T3 sequence (P23458 whole entry): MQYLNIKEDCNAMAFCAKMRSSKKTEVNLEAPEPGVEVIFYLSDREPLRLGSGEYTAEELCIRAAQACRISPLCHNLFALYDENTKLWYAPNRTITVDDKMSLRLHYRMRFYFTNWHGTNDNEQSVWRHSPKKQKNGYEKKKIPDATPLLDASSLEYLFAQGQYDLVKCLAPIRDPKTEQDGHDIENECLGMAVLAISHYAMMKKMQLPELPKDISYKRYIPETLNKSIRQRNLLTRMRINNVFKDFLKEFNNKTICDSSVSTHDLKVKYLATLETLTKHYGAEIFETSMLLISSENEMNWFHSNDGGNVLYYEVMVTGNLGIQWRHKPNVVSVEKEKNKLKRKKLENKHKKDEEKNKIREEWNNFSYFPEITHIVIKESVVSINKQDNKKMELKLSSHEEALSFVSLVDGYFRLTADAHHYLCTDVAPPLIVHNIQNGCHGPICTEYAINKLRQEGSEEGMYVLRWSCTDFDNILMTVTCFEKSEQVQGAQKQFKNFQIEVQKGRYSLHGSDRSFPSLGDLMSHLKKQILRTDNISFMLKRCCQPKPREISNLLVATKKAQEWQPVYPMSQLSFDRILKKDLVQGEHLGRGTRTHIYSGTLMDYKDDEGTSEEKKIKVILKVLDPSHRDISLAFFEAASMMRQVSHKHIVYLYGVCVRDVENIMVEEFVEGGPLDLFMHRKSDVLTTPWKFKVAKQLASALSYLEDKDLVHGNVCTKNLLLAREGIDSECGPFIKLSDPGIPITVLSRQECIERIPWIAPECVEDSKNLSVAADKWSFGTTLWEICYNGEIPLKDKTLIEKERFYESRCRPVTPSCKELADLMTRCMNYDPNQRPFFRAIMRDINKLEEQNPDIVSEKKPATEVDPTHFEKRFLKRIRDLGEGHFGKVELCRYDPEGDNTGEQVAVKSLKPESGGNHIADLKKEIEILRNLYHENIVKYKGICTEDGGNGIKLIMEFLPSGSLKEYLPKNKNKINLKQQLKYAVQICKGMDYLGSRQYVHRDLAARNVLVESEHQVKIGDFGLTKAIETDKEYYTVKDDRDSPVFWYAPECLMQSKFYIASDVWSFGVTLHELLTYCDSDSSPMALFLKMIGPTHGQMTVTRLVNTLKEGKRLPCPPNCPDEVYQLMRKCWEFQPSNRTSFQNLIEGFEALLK
# Outline: as §1
# AMPKa1 or AMPKa2 = assay: Probe-based (AX9989) kinase profiling in Jurkat lysate: AMPKa1 or AMPKa2
# Outline: as §1
# [1] = molecular target: T4, BRD4 bromodomain domain I [BRD4(1)] (Homo sapiens, UniProt O60885); assay: BRD4 bromodomain domain 1 inhibition assay (TR-FRET); details: screening concentration 10 μM
# T4 construct: BRD4 bromodomain domain I [BRD4(1)]; purchased Cayman Chemicals
# Outline: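 0.5% DMSO, in triplicate, using Cayman BRD4(1) TR-FRET protocol with slight modification. 670/620 nm ratio normalized to 10 μM JQ1, with DMSO control set as 0% inhibition.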
SMILES,IC50 (ERK5),inhibition at 1 µM (ERK5),inhibition at 1 µM (AurA),Kinase inhibition % at indicated screening concentration: AurB or AurC (AurB or AurC; screening concentration 1.0 μM),inhibition at 1 µM (JAK1),Kinase inhibition % at indicated screening concentration: AMPKa1 or AMPKa2 (AMPKa1 or AMPKa2; screening concentration 1.0 μM),inhibition at 10 µM [1],inhibition at 0.1 µM (ERK5),inhibition at 0.1 µM (AurA),Kinase inhibition % at indicated screening concentration: AurB or AurC (AurB or AurC; screening concentration 0.1 μM),inhibition at 0.1 µM (JAK1),Kinase inhibition % at indicated screening concentration: AMPKa1 or AMPKa2 (AMPKa1 or AMPKa2; screening concentration 0.1 μM)
CCOc1cc(C(=O)N2CCCCC2)ccc1Nc1cc2c(cn1)N(C)C(=O)c1ccccc1N2C [Compound 12],101 to 500 nM,75 to 90%,≤ 35%,E (E is ≦35%),≤ 35%,E (E is ≦35%),70 to 85%,–,–,–,–,–
CCOc1cc(C(=O)N(C)CCN2CCCC2)ccc1Nc1cc2c(cn1)N(C)C(=O)c1ccccc1N2C [Compound 28],50 to 100 nM,–,–,–,–,–,> 85%,> 90%,≤ 35%,E (E is ≦35%),≤ 35%,E (E is ≦35%)
CCOc1cc(C(=O)N(C)CCn2ccnc2)ccc1Nc1cc2c(cn1)N(C)C(=O)c1ccccc1N2C [Compound 30],≤ 50 nM,–,–,–,–,–,70 to 85%,75 to 90%,≤ 35%,E (E is ≦35%),≤ 35%,E (E is ≦35%)
CCOc1cc(C(=O)N2CCNC[C@@H]2C)ccc1Nc1cc2c(cn1)N(C)C(=O)c1ccccc1N2C [Compound 31],≤ 50 nM,–,–,–,–,–,> 85%,75 to 90%,≤ 35%,E (E is ≦35%),≤ 35%,E (E is ≦35%)
CCOc1cc(C(=O)N2CCN(CCO)CC2)ccc1Nc1cc2c(cn1)N(C)C(=O)c1ccccc1N2C [Compound 37],≤ 50 nM,–,–,–,–,–,70 to 85%,75 to 90%,≤ 35%,E (E is ≦35%),≤ 35%,E (E is ≦35%)
CCOc1cc(C(=O)N2CCN(C3CC3)CC2)ccc1Nc1cc2c(cn1)N(C)C(=O)c1ccccc1N2C [Compound 39],≤ 50 nM,–,–,–,–,–,< 70%,50 to 75%,≤ 35%,E (E is ≦35%),≤ 35%,E (E is ≦35%)
CCOc1cc(C(=O)N2CCC(N3CCN(C)CC3)CC2)ccc1Nc1cc2c(cn1)N(C)C(=O)c1ncccc1N2C [Compound 40],≤ 50 nM,> 90%,≤ 35%,E (E is ≦35%),≤ 35%,E (E is ≦35%),< 70%,–,–,–,–,–
CCOc1cc(C(=O)N(C)CCN(CC)CC)ccc1Nc1cc2c(cn1)N(C)C(=O)c1ccccc1N2C [Compound 42],≤ 50 nM,> 90%,≤ 35%,E (E is ≦35%),≤ 35%,E (E is ≦35%),> 85%,–,–,–,–,–
CCOc1cc(C(=O)N2CCC(NC)C2)ccc1Nc1cc2c(cn1)N(C)C(=O)c1occc1N2C (stereo not shown) [Compound 43],≤ 50 nM,–,–,–,–,–,> 85%,> 90%,≤ 35%,E (E is ≦35%),≤ 35%,E (E is ≦35%)
CCOc1cc(C(=O)NCCN2CCN(C)CC2)ccc1Nc1cc2c(cn1)N(C)C(=O)c1ccccc1N2C [Compound 44],101 to 500 nM,75 to 90%,≤ 35%,E (E is ≦35%),≤ 35%,E (E is ≦35%),70 to 85%,–,–,–,–,–
CN1C(=O)c2ccccc2N(C)c2cc(N[C@H]3CC[C@H](NC4=NCCO4)CC3)ncc21 [Compound 45],101 to 500 nM,75 to 90%,≤ 35%,E (E is ≦35%),≤ 35%,E (E is ≦35%),< 70%,–,–,–,–,–

# Second part, the molecule after the results:
IC50 (ERK5),inhibition at 1 µM (ERK5),inhibition at 1 µM (AurA),Kinase inhibition % at indicated screening concentration: AurB or AurC (AurB or AurC; screening concentration 1.0 μM),inhibition at 1 µM (JAK1),Kinase inhibition % at indicated screening concentration: AMPKa1 or AMPKa2 (AMPKa1 or AMPKa2; screening concentration 1.0 μM),inhibition at 10 µM [1],inhibition at 0.1 µM (ERK5),inhibition at 0.1 µM (AurA),Kinase inhibition % at indicated screening concentration: AurB or AurC (AurB or AurC; screening concentration 0.1 μM),inhibition at 0.1 µM (JAK1),Kinase inhibition % at indicated screening concentration: AMPKa1 or AMPKa2 (AMPKa1 or AMPKa2; screening concentration 0.1 μM),SMILES
≤ 50 nM,–,–,–,–,–,> 85%,75 to 90%,≤ 35%,E (E is ≦35%),≤ 35%,E (E is ≦35%),CCOc1cc(C(=O)N2CCC(N3CCCC3)C2)ccc1Nc1cc2c(cn1)N(C)C(=O)c1occc1N2C (stereo not shown) [Compound 15]
≤ 50 nM,–,–,–,–,–,> 85%,75 to 90%,≤ 35%,E (E is ≦35%),≤ 35%,E (E is ≦35%),CCOc1cc(C(=O)N2CC[C@H](O)C2)ccc1Nc1cc2c(cn1)N(C)C(=O)c1occc1N2C [Compound 17]
≤ 50 nM,–,–,–,–,–,70 to 85%,75 to 90%,≤ 35%,E (E is ≦35%),≤ 35%,E (E is ≦35%),C=CCN1CCN(C(=O)c2ccc(Nc3cc4c(cn3)N(C)C(=O)c3ccccc3N4C)c(OCC)c2)CC1 [Compound 21]
≤ 50 nM,–,–,–,–,–,> 85%,> 90%,≤ 35%,E (E is ≦35%),≤ 35%,E (E is ≦35%),CCOc1cc(C(=O)N2CC[C@@H](N3CCCC3)C2)ccc1Nc1cc2c(cn1)N(C)C(=O)c1ccccc1N2C [Compound 24]
≤ 50 nM,–,–,–,–,–,> 85%,> 90%,≤ 35%,E (E is ≦35%),≤ 35%,E (E is ≦35%),CCOc1cc(C(=O)N2CC[C@@H](N(C)C)C2)ccc1Nc1cc2c(cn1)N(C)C(=O)c1occc1N2C [Compound 25]
